# Measurements from patent publication US20210290624A1, “METHODS OF TREATING CANCERS CHARACTERIZED BY A HIGH EXPRESSION LEVEL OF SPINDLE AND KINETOCHORE ASSOCIATED COMPLEX SUBUNIT 3 (SKA3) GENE” (UNIVERSITY HEALTH NETWORK, priority 2018, published 2021).
# Tested on: breast cancer cell lines
# Test: sulforhodamine B (SRB) drug sensitivity assay in breast cancer cell line panel
# Type: cell-based
# Details: panel of 52 breast cancer cell lines, 5 days of treatment, FIG. 1
# Description: A breast cancer cell line panel, previously described (Marcotte et al., Cell, 164(1-2), 2016293-309), was assembled for in vitro drug sensitivity profiling, and mated with available gene expression data. The RNA-seq reads were aligned to the Ensembl Genome Reference Consortium release GRCh38 using Kallisto pipeline (Bray et al., Nature Biotechnology, 201634(5), 525-527). Expression values were computed as log2(TPM+0.001), where TPM represents the number of transcripts per million mapped reads units which control for sequence length and sequencing depth. The status of SKA3 expression (high vs low expression) can be determined from a reference population such as the breast cancer TCGA cohort (see FIG. 6).
# Response of breast cancer cell lines to compound CFI-402257 (a TTK inhibitor, see the structure below) was evaluated using sulforhodamine B (SRB) assays. The compound was synthesized as previously described (See Liu et al., ACS Medicinal Chemistry Letters, 20167(7), 671-675).
# Cells were seeded in 96-well plates and treated with serial drug dilutions. After 5 days of treatment, cells were fixed, stained with SRB, solubilized, and absorbance quantified on a spectrophotometer. For all drug response assays, cell viabilities are reported as the proportion of growth in drug relative to DMSO treated conditions. […]
smiles,measurement,value
Cc1cc(-c2cnn3c(NC[C@H]4C[C@@](C)(O)C4)cc(Oc4cccnc4)nc23)ccc1C(=O)NC1CC1 [CFI-402257],"in vitro sensitivity (area above the drug dose-response curve, AAC)",Differential in vitro sensitivity
